Experimental data taken from patent US12252457B2, “Compositions and methods for reducing tactile dysfunction, anxiety, and social impairment” (President and Fellows of Harvard College, priority 2018, dated 2025).
Where a name gives a salt, the structure may show the parent alone.

What was measured:
[1] = tested on: low-threshold mechanoreceptor neurons (LTMRs); test: In vivo multiunit electrode recordings in the L4 DRG; parameters: species or system mouse
Source text: FIGS. 20A-20O show isoguvacine attenuates tactile sensitivity through reduced excitability of peripheral, low-threshold mechanosensory neurons. FIG. 20A: Diagram for in vivo dorsal root ganglion (DRG) multi-unit electrode recordings, showing tetrode placement into the left L4 ganglia. FIG. 20B: Activity traces of two putative neurons (units) in response to a brush stimulus. FIG. 20C: Activity traces of two putative neurons (units) in response to a light air puff stimulus (1 PSI). FIGS. 20D-20G: Example unit identified during the spike sorting process. Average waveform at each electrode site (FIG. 20D, FIG. 20E), and inter-spike interval (FIG. 20F, FIG. 20G). FIG. 20H: Representative activity raster plots for multiple putative LTMRs in multiple mice over the duration of a recording experiment in controls and Advillin^Cre; Gabrb3^f/f mice. Mice received a subcutaneous injection of either saline or isoguvacine (2 mg/kg) during the experiment, and activity of light-touch responsive units in response to a light brush stimulus was assessed over a 90-minute period. FIG. 20I: Average firing frequency of LTMRs over the duration of each recording experiment, following subcutaneous injection of either saline or isoguvacine (2 mg/kg). Repeated measures, two-way ANOVA with post-hoc Dunnett's test, *p<0.05. FIG. 20J: Representative activity raster plots for putative LTMRs in multiple mice over the duration of recordings in controls and Shank3B^+/− mice. Mice received a subcutaneous injection of either saline or isoguvacine (2 mg/kg) during the experiment, and activity of light-touch responsive units was assessed over a 90-minute period. FIG. 20K: Average baseline spike rate of LTMRs in response to brush or air puff stimulus, in control and Shank3B^+/− mice. Student's t-test, *p<0.05. FIG. 20L: Average firing frequency of LTMRs over the duration of each recording experiment, following subcutaneous injection of either saline or isoguvacine (2 mg/kg). Repeated measures, two-way ANOVA with post-hoc Dunnett's test, *p<0.05. […] Two-way ANOVA with post-hoc Sidak's test, *, p<0.05. FIG. 20N: Response to a light air puff stimulus alone in mice following i.p. administration of either saline or 2 mg/kg isoguvacine treatment. Responses are expressed as percent of startle response to a 125 dB noise. Two-way ANOVA with post-hoc Sidak's test, *, p<0.05. FIG. 20O: Magnitude of startle response to a 125 dB noise in mice following i.p. administration of either saline or 2 mg/kg isoguvacine treatment. Responses are expressed as percent of startle response to a 125 dB noise. Two-way ANOVA with post-hoc Sidak's test, *, p<0.05.
To test the hypothesis that isoguvacine exerts its effects by acting directly on primary somatosensory neurons, electrophysiological recordings were performed both in vitro and in vivo. DRG cultures from Mecp2 and Shank3 mutant and control littermates were first produced to assess excitability of these neurons in vitro using whole cell patch-clamp recordings. […] It was next asked whether administration of isoguvacine would reduce mechanosensory neuron sensitivity in vivo by performing multiunit electrode recordings in the L4 DRG of urethane- and isoflurane-anesthetized mice (FIG. 20A). […] Once LTMR units were identified, animals were administered a subcutaneous injection of either saline vehicle or isoguvacine (2 mg/kg) and then sensitivity and firing frequency in response to tactile stimuli were monitored over a 90-minute period for each identified unit. […]

Transporter, GABA = target: T1, Transporter, GABA (Rattus norvegicus, UniProt P23978); test: GABA transporter radioligand binding assay (Cat # 226400)
T1 construct: tissue Eurofins Panlabs 226400; host or cells: rat brain membranes (own knowledge of the vendor's assay and of the cited Shank et al. 1990 method)
Method: The activity of compound Compound 5 was evaluated in Radioligand Binding assays. Methods employed herein have been adapted from the scientific literature to maximize reliability and reproducibility. Reference standards were run as an integral part of each assay to ensure the validity of the results obtained. Where presented, IC50 values were determined by a non-linear, least squares regression analysis using MathIQ™ (ID Business Solutions Ltd., UK). Where inhibition constants (K) are presented, the Ki values were calculated using the equation of Cheng and Prusoff (Cheng, Y., Prusoff, W. H., Biochem. Pharmacol. 22:3099-3108, 1973) using the observed IC50 of the tested compound, the concentration of radioligand employed in the assay, and the historical values for the KD of the ligand (obtained experimentally at Eurofins Panlabs, Inc.). Where presented, the Hill coefficient (nH), defining the slope of the competitive binding curve, was calculated using MathIQ™. […] Where IC50, Ki and/or nH data are presented without Standard Error of the Mean (SEM), data are insufficient to be quantitative.
Biochemical assay results are presented as the percent inhibition of specific binding or activity. All other results are expressed in terms of the quantitation method of that assay. For primary assays, only the lowest concentration with a significant response, judged by the criteria of the assay, is shown in this summary. […] Unless otherwise requested, primary screening in duplicate with quantitative data (e.g., IC50±SEM, Ki ±SEM and nH) are shown where applicable for individual requested assays.
J Neurochem. 54:2007-2015.

SMILES | proprioceptor sensitivity and firing ([1]; 2 mg/kg subcutaneous) | response thresholds to light touch stimuli and spiking of glabrous- and hairy-skin innervating Aβ LTMRs ([1]; 2 mg/kg subcutaneous) | tactile stimulus-evoked LTMR sensitivity ([1]; Advillin^Cre, Gabrb3^f/f mice, 2 mg/kg subcutaneous) | LTMR firing ([1]; Shank3B and control littermates, 2 mg/kg subcutaneous) | tactile stimulus-evoked (brush or air puff) responsivity of LTMRs ([1]; control mice, sixty minutes after 2 mg/kg subcutaneous) | GABA transporter inhibition (in words) (Transporter, GABA) | IC50 (Transporter, GABA) [µM] | Ki (Transporter, GABA) [µM] | inhibition at 30 µM (Transporter, GABA) [%] | inhibition at 0.1 µM (Transporter, GABA; Conc. 0.1 μM) [%] | inhibition at 0.3 µM (Transporter, GABA; Conc. 0.3 μM) [%] | inhibition at 1 µM (Transporter, GABA; Conc. 1 μM) [%] | inhibition at 3 µM (Transporter, GABA; Conc. 3 μM) [%] | inhibition at 10 µM (Transporter, GABA; Conc. 10 μM) [%] | inhibition at 100 µM (Transporter, GABA; Conc. 100 μM) [%] | inhibition at 300 µM (Transporter, GABA; Conc. 300 μM) [%] | inhibition at 1000 µM (Transporter, GABA; Conc. 1 mM) [%] | nH (Hill coefficient) (Transporter, GABA; slope of competitive binding curve)
O=C(O)C1=CCNCC1 [Isoguvacine, isoguvacine] | unaffected | increased response thresholds to light touch stimuli and reduced spiking | no changes in tactile stimulus-evoked LTMR sensitivity | attenuated firing | significantly decreased |  |  |  |  |  |  |  |  |  |  |  |  | 
NC1C=C(C(=O)O)CCC1 (stereo not drawn) [Compound 5, 3-aminocyclohex-1-enecarboxylic acid hydrochloride] |  |  |  |  |  | potent GABA transporter inhibitor | 28.1 | 27.5 | 52 | -10 | 3 | -1 | 2 | 19 | 86 | 97 | 104 | 1.47
